Data taken from patent US5171851A, “Imidazole substituted benzoxazine or benzothiazine derivatives” (Dong-A Pharm. Co., Ltd., priority 1990, dated 1992).
Where two headings read alike, the source gives them in different places.

How the values were obtained:
anesthetized cats = experiment: cardiotonic effect on anesthetized cats; type: in vivo, cat; conditions: Felis catus; for change in vivo at 0.01 mg/kg: 0.01 mg/Kg iv; for change in vivo at 0.03 mg/kg: 0.03 mg/Kg iv; for change in vivo at 0.1 mg/kg: 0.1 mg/Kg iv
Description: Determination of cardiotonic effect on anesthetized cats: Male cats weighing about 3 kg were anesthetized with sodium pentobarbital (30 mg/kg, i.p.). The same anesthetic was infused intravenously at the does of 4 mg/kg/hr in order to maintain the anesthetic state and mechanically ventilated through a cuffed endotracheal tube, chest was opened by a midline incision and a catheter for measuring left ventricular pressure was inserted through apex into left ventricle and the left ventricular pressure was measured. LVdP/dt was determined by use of diffentiator from the left ventricular pressure. Systemic blood pressure was measured by the left femoral artery by a pressure transducer and heart rate was measured by a cardiotachometer triggered by blood pressure pulses. Test compound was injected into the femoral vein by use of cannule. After completion of the surgical procedures, the cats were allowed to recover about 30 minutes before drug administration. These compounds were dissolved in 0.9% physiological saline and diluted with saline. Solvent such as DMSO or DMF was also used, if necessary. Test compound of 0.1 ml/kg was used. Detailed method was reporated in J. Med. Chem. 30. 1279-87(1987).

BALB/C mice = experiment: acute toxicity test in BALB/C mice; type: in vivo, mouse; conditions: oral, 200 mg/kg, five mice
Description: Acute toxicity test in mice:
Acute toxicity test of 6-(4-methylimidazol-1-yl)-(4H)-3,1-benzothiazine-2-thione was conducted in BALB/C mice. The test compound was suspended in 5% arabic gum solution and administered orally to five mice at a dose of 200 mg/kg body weight by gastric tubing. […] Accordingly, LD50 of the compound is 200 mg/kg or more.

[1] = test system: blood perfused papillary muscle preparation; experiment: contractile power on blood perfused papillary muscle preparation; parameters: species or system dog; conditions: Canis lupus familiaris, read-out: change of contractivity (%); for activation at 0.001 mg: dose 1.0 ug; for activation at 0.01 mg: dose 10.0 ug
Description: Determination of contractile power on blood perfused papillary muscle preparation:
Dogs of either sex weighing 7-12 kg were anesthetized with sodium pentobarbital (30 mg/kg, i.v.). Heparin of 1000 unit/kg was administered to each animal intravenously. The animals were exsanguinated and heart was removed. The preparation was perfused through the cannulated anterior septal artery (ASA) with arterial blood from a donor dog at constant pressure of about […]. Donor dogs were anesthetized with sodium pentobarbital (30 mg/kg, i.v.). Heparin of 1000 units/kg was administered intravenously. The papillary muscle was stimulated with rectangular pulses of 5- ms duration and about 1.5 times the threshold voltage at a rate of 120 stimuli/min through bipolar electrodes. Resting tension was made to 2 g. The developed tension of papillary muscle was determined by Isometric tresducer. Detailed method was reporated by Matsumoto in Am J. Physiol. 218, 1459-1463 (1970). Test compound at the doses of 10-30 ul was injected in flowing blood in the gum tube connected to catheter. The inotropic effect of the test compounds was shown by change percent of developed tension compared with that prior to the administration of the test compounds.

Spraque-Dawley rats = experiment: acute toxicity test in Spraque-Dawley rats; conditions: rat, in vivo, po, 300 mg/kg
Description: Acute toxicity test of 6-(4-methylimidazol-1-yl)-(4H)-3,1-benzoxazin-2-one was conducted in Spraque-Dawley rats. The test compound was suspended in 5% arabic gum and was administered orally to six rats at a dose of 300 mg/kg body weight. […] Accordingly, LD 50 of the compound is 300 mg/kg or more.

[2] = test system: blood-perfused sino-atrial preparation; experiment: sinus rate on blood-perfused sino-atrial preparation; parameters: species or system dog; conditions: for activation at 0.003 mg: dose 3.0 ug
Description: Determination of sinus rate on blood-perfused sino-atrial preparation: Mongrel gods of either sex weighing 7-12 kg were anesthetized with sodium pentoba rbital (30 mg/kg i.v.). Heparin ob 1000 unit/kg was administered to each animal intravenously and the animals were exsanguinated. Heart was removed and put in Krebs-Henseleit solution. Catheter was inserted into blood vessel between right coronary artery and SA nodes. Right atrium and catheter were together removed. Blood supplied from carotid artery of donor dog of either sex weighing 15-25 kg, was supplied to blood vessel cather from right coronary artery and SA node under constant blood pressure of 100 mmHG by use of Peristaltic pump. The resting tension of right atrial muscle was made to 2g. The sinus rate triggered by spontaneous contraction of atrial muscle was determined on Narco physiograph Narcotrace 4). Detailed method was reported by S. Chiba, et al. in Japanese Pharmacology 25, 433-439(1975). Doses of test compounds were injected into flowing blood in gum tube connected to the near part of the catheter inserted into right coronary artery. The effects on sinus rate were shown as percent compared with the sinus ratio prior to the injection of the test compounds.

ICR mouse = experiment: acute toxicity test in ICR mouse; type: in vivo; conditions: intravenous, 30 mg/kg, five mice
Description: Acute toxicity test of 6-(4-methylimidazol-1-yl)-(4H)-3,1-benzothiazin-2-one was conducted in ICR mouse. The test compound was dissolved in a mixed solvent of saline and DMF (2:1) and was administered intravenously to five mice at a dose of 30 mg/kg body weight. […] Accordingly, LD50 of the compound is 30 mg/kg or more.

[3] = Canis lupus familiaris, read-out: change of sinus rate (%)

Row | SMILES | change in vivo at 0.01 mg/kg (anesthetized cats; read-out: HR (%)) [%] | change in vivo at 0.01 mg/kg (anesthetized cats; read-out: LV dp/dt (%)) [%] | change in vivo at 0.01 mg/kg (anesthetized cats; read-out: LVP (%)) [%] | change in vivo at 0.01 mg/kg (anesthetized cats; read-out: SBP (%)) [%] | change in vivo at 0.01 mg/kg (anesthetized cats; read-out: dBP) [%] | change in vivo at 0.01 mg/kg (anesthetized cats; read-out: mBP (%)) [%] | change in vivo at 0.03 mg/kg (anesthetized cats; read-out: HR (%)) [%] | change in vivo at 0.03 mg/kg (anesthetized cats; read-out: LV dp/dt (%)) [%] | change in vivo at 0.03 mg/kg (anesthetized cats; read-out: LVP (%)) [%] | change in vivo at 0.03 mg/kg (anesthetized cats; read-out: SBP (%)) [%] | change in vivo at 0.03 mg/kg (anesthetized cats; read-out: dBP) [%] | change in vivo at 0.03 mg/kg (anesthetized cats; read-out: mBP (%)) [%] | change in vivo at 0.1 mg/kg (anesthetized cats; read-out: HR (%)) [%] | change in vivo at 0.1 mg/kg (anesthetized cats; read-out: LV dp/dt (%)) [%] | change in vivo at 0.1 mg/kg (anesthetized cats; read-out: LVP (%)) [%] | change in vivo at 0.1 mg/kg (anesthetized cats; read-out: SBP (%)) [%] | change in vivo at 0.1 mg/kg (anesthetized cats; read-out: dBP) [%] | change in vivo at 0.1 mg/kg (anesthetized cats; read-out: mBP (%)) [%] | activation at 0.001 mg [1] [%] | activation at 0.01 mg [1] [%] | further results
1 | Cc1cn(-c2ccc3c(c2)CSC(=S)N3)cn1 [6-(4-methylimidazol-1-yl)-(4H)-3,1-benzothiazine-2-thione] | 0 | 3.7 | 0 | 4 | 4 | 4 | 2.1 | 18.5 | 0 | 0 | -4 | -3 | 3.6 | 40.7 | 1.2 | -4.7 | -14 | -10 |  |  | dead animals (BALB/C mice): no dead animal was found
2 | Cc1cn(-c2ccc3c(c2)COC(=O)N3)cn1 [6-(4-methylimidazol-1-yl)(4H)-3,1-benzoxazin-2-one] | 1.25 | 29.6 | 7.69 | -4.55 | -7.14 | -6 | 1.88 | 85.2 | 23.1 | -9.12 | -10.7 | -10.2 | 6.25 | 113 | 30.8 | -15.9 | -14.3 | -15 | 2.94 | 30.4 | activation at 0.003 mg ([1]; dose 3.0 ug): 13%; dead animals (Spraque-Dawley rats): no dead animal was found; activation at 0.001 mg ([2]; Canis lupus familiaris, dose 1.0 ug, read-out: change of sinus rate (%)): 0%; activation at 0.003 mg [2, 3]: 2.52%; activation at 0.01 mg ([2]; Canis lupus familiaris, dose 10.0 ug, read-out: change of sinus rate (%)): 5.04%; change of sinus rate (%) ([2]; at the ED 30 dose): +5.17%
3 | Cc1cn(-c2ccc3c(c2)CSC(=O)N3)cn1 [6-(4-methylimidazol-1-yl)-(4H)-3,1-benzothiazin-2-one] | 0 | 14.8 | 0 | -4 | -8.5 | -9.1 | 0.6 | 33.3 | 0 | -10 | -14.3 | -12.5 | 4.5 | 40.7 | 8.2 | -14 | -20 | -17.5 | 0 | 20.5 | dead animals (ICR mouse): no dead animal was found; activation at 0.03 mg ([1]; dose 30.0 ug): 30.7%; activation at 0.003 mg [2, 3]: 2.3%; activation at 0.03 mg ([2]; Canis lupus familiaris, dose 30.0 ug, read-out: change of sinus rate (%)): 5.6%
